Results as given in PubChem BioAssay (NCI).
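A five-concentration, 48-hour dose response in 96-well plates underlies each endpoint, interpolated linearly between surrounding concentrations. TGI: total growth inhibition.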

system: KM12 colon; experiment: NCI tumour cell line growth inhibition, 48 h

Question: Which TGI does the source give for `CCN(CC)C1CC(O[C@H]2C[C@](O)(C(=O)CO)Cc3c(O)c4c(c(O)c32)C(=O)c2c(OC)cccc2C4=O)OC(C)C1O` (some centres undefined) here?
Answer: 0.457 µM

system: COLO 205 colon; experiment: NCI tumour cell line growth inhibition, 48 h

Question: Which TGI does the source give for `CC(=O)O[C@H]1CCC2[C@@H]3CC[C@]4(C)CC(=O)C=C[C@]4(C)C3CC[C@@]21C` (some centres undefined) here?
Answer: 31.3 µM

Question: How did the TGI turn out when `O=C(CCc1nc(=S)[nH][nH]1)Nc1ccccc1Cl` was run?
Answer: > 100 µM

Question: Which TGI does the source give for `O=C(CC(=O)n1nc(-c2ccccc2)c(N=Nc2ccc(Cl)cc2)c1-c1ccccc1)Nc1ccc(Cl)cc1` here?
Answer: > 63.9 µM

Question: Which TGI does the source give for `COc1cc2cc3c4cc(OC)c(OC)cc4cc[n+]3c(C)c2cc1OC` (tested in a mixture with another compound) here?
Answer: > 87.9 µM

Question: Which TGI does the source give for `CCN(CC)C1CC(O[C@H]2C[C@](O)(C(=O)CO)Cc3c(O)c4c(c(O)c32)C(=O)c2c(OC)cccc2C4=O)OC(C)C1O` (some centres undefined) here?
Answer: 0.193 µM

system: DMS 273 small cell lung; experiment: NCI tumour cell line growth inhibition, 48 h

Question: With `CC(=O)O[C@H]1CCC2[C@@H]3CC[C@]4(C)CC(=O)C=C[C@]4(C)C3CC[C@@]21C` (some centres undefined) as the molecule, how does the TGI read?
Answer: 31.7 µM

Question: How did the TGI turn out when `O=C(CCc1nc(=S)[nH][nH]1)Nc1ccccc1Cl` was run?
Answer: > 100 µM

Question: With `O=C(CC(=O)n1nc(-c2ccccc2)c(N=Nc2ccc(Cl)cc2)c1-c1ccccc1)Nc1ccc(Cl)cc1` as the molecule, how does the TGI read?
Answer: > 100 µM

Question: Which TGI does the source give for `COC(=O)C12CC3CC(CC(C(=O)O)(C3)C1)C2` here?
Answer: > 100 µM

Question: Which TGI does the source give for `COc1cc2cc3c4cc(OC)c(OC)cc4cc[n+]3c(C)c2cc1OC` (tested in a mixture with another compound) here?
Answer: > 100 µM

Question: Which TGI does the source give for `CCN(CC)C1CC(O[C@H]2C[C@](O)(C(=O)CO)Cc3c(O)c4c(c(O)c32)C(=O)c2c(OC)cccc2C4=O)OC(C)C1O` (some centres undefined) here?
Answer: 0.161 µM

system: SF-268 CNS; experiment: NCI tumour cell line growth inhibition, 48 h

Question: `CC(=O)O[C@H]1CCC2[C@@H]3CC[C@]4(C)CC(=O)C=C[C@]4(C)C3CC[C@@]21C` (some centres undefined) was tested. Which TGI did it give?
Answer: 43.8 µM

Question: For `O=C(CCc1nc(=S)[nH][nH]1)Nc1ccccc1Cl`, which TGI is on record?
Answer: > 100 µM

Question: How did the TGI turn out when `O=C(CC(=O)n1nc(-c2ccccc2)c(N=Nc2ccc(Cl)cc2)c1-c1ccccc1)Nc1ccc(Cl)cc1` was run?
Answer: > 100 µM

Question: Which TGI does the source give for `COC(=O)C12CC3CC(CC(C(=O)O)(C3)C1)C2` here?
Answer: > 100 µM

Question: How did the TGI turn out when `COc1cc2cc3c4cc(OC)c(OC)cc4cc[n+]3c(C)c2cc1OC` (tested in a mixture with another compound) was run?
Answer: > 95 µM

Question: With `CCN(CC)C1CC(O[C@H]2C[C@](O)(C(=O)CO)Cc3c(O)c4c(c(O)c32)C(=O)c2c(OC)cccc2C4=O)OC(C)C1O` (some centres undefined) as the molecule, how does the TGI read?
Answer: 0.314 µM

system: KM20L2 colon; experiment: NCI tumour cell line growth inhibition, 48 h

Question: `CC(=O)O[C@H]1CCC2[C@@H]3CC[C@]4(C)CC(=O)C=C[C@]4(C)C3CC[C@@]21C` (some centres undefined) was tested. Which TGI did it give?
Answer: 43.5 µM

Question: `O=C(CCc1nc(=S)[nH][nH]1)Nc1ccccc1Cl` was tested. Which TGI did it give?
Answer: > 100 µM

Question: `O=C(CC(=O)n1nc(-c2ccccc2)c(N=Nc2ccc(Cl)cc2)c1-c1ccccc1)Nc1ccc(Cl)cc1` was tested. Which TGI did it give?
Answer: > 100 µM

Question: With `COC(=O)C12CC3CC(CC(C(=O)O)(C3)C1)C2` as the molecule, how does the TGI read?
Answer: > 100 µM

Question: For `CCCCCCc1cc(C(=O)Nc2ccc(Cl)cc2)nc(=S)[nH]1`, which TGI is on record?
Answer: > 1 µM

Question: With `COc1cc2cc3c4cc(OC)c(OC)cc4cc[n+]3c(C)c2cc1OC` (tested in a mixture with another compound) as the molecule, how does the TGI read?
Answer: > 100 µM

Question: With `CCN(CC)C1CC(O[C@H]2C[C@](O)(C(=O)CO)Cc3c(O)c4c(c(O)c32)C(=O)c2c(OC)cccc2C4=O)OC(C)C1O` (some centres undefined) as the molecule, how does the TGI read?
Answer: 0.416 µM

system: RPMI-8226 leukemia; experiment: NCI tumour cell line growth inhibition, 48 h

Question: For `CC(=O)O[C@H]1CCC2[C@@H]3CC[C@]4(C)CC(=O)C=C[C@]4(C)C3CC[C@@]21C` (some centres undefined), which TGI is on record?
Answer: 61.5 µM

Question: `O=C(CCc1nc(=S)[nH][nH]1)Nc1ccccc1Cl` was tested. Which TGI did it give?
Answer: > 100 µM

Question: Which TGI does the source give for `O=C(CC(=O)n1nc(-c2ccccc2)c(N=Nc2ccc(Cl)cc2)c1-c1ccccc1)Nc1ccc(Cl)cc1` here?
Answer: > 64.6 µM

Question: Which TGI does the source give for `COC(=O)C12CC3CC(CC(C(=O)O)(C3)C1)C2` here?
Answer: > 100 µM

Question: With `CCCCCCc1cc(C(=O)Nc2ccc(Cl)cc2)nc(=S)[nH]1` as the molecule, how does the TGI read?
Answer: > 100 µM

Question: For `COc1cc2cc3c4cc(OC)c(OC)cc4cc[n+]3c(C)c2cc1OC` (tested in a mixture with another compound), which TGI is on record?
Answer: > 100 µM

Question: For `CCN(CC)C1CC(O[C@H]2C[C@](O)(C(=O)CO)Cc3c(O)c4c(c(O)c32)C(=O)c2c(OC)cccc2C4=O)OC(C)C1O` (some centres undefined), which TGI is on record?
Answer: 0.31 µM

system: HT29 colon; experiment: NCI tumour cell line growth inhibition, 48 h

Question: For `CC(=O)O[C@H]1CCC2[C@@H]3CC[C@]4(C)CC(=O)C=C[C@]4(C)C3CC[C@@]21C` (some centres undefined), which TGI is on record?
Answer: 32.8 µM

Question: For `O=C(CCc1nc(=S)[nH][nH]1)Nc1ccccc1Cl`, which TGI is on record?
Answer: > 100 µM

Question: `O=C(CC(=O)n1nc(-c2ccccc2)c(N=Nc2ccc(Cl)cc2)c1-c1ccccc1)Nc1ccc(Cl)cc1` was tested. Which TGI did it give?
Answer: > 59.7 µM

Question: How did the TGI turn out when `COC(=O)C12CC3CC(CC(C(=O)O)(C3)C1)C2` was run?
Answer: > 100 µM

Question: `COc1cc2cc3c4cc(OC)c(OC)cc4cc[n+]3c(C)c2cc1OC` (tested in a mixture with another compound) was tested. Which TGI did it give?
Answer: > 69.1 µM

Question: With `CCN(CC)C1CC(O[C@H]2C[C@](O)(C(=O)CO)Cc3c(O)c4c(c(O)c32)C(=O)c2c(OC)cccc2C4=O)OC(C)C1O` (some centres undefined) as the molecule, how does the TGI read?
Answer: 1.64 µM

system: PC-3 prostate; experiment: NCI tumour cell line growth inhibition, 48 h

Question: Which TGI does the source give for `CC(=O)O[C@H]1CCC2[C@@H]3CC[C@]4(C)CC(=O)C=C[C@]4(C)C3CC[C@@]21C` (some centres undefined) here?
Answer: 77.1 µM

Question: For `COc1cc2cc3c4cc(OC)c(OC)cc4cc[n+]3c(C)c2cc1OC` (tested in a mixture with another compound), which TGI is on record?
Answer: > 100 µM

system: SK-MEL-5 melanoma; experiment: NCI tumour cell line growth inhibition, 48 h

Question: With `CC(=O)O[C@H]1CCC2[C@@H]3CC[C@]4(C)CC(=O)C=C[C@]4(C)C3CC[C@@]21C` (some centres undefined) as the molecule, how does the TGI read?
Answer: 28.3 µM

Question: For `O=C(CCc1nc(=S)[nH][nH]1)Nc1ccccc1Cl`, which TGI is on record?
Answer: > 100 µM

Question: Which TGI does the source give for `O=C(CC(=O)n1nc(-c2ccccc2)c(N=Nc2ccc(Cl)cc2)c1-c1ccccc1)Nc1ccc(Cl)cc1` here?
Answer: > 100 µM

Question: For `COC(=O)C12CC3CC(CC(C(=O)O)(C3)C1)C2`, which TGI is on record?
Answer: > 100 µM

Question: With `CCCCCCc1cc(C(=O)Nc2ccc(Cl)cc2)nc(=S)[nH]1` as the molecule, how does the TGI read?
Answer: > 100 µM

Question: `COc1cc2cc3c4cc(OC)c(OC)cc4cc[n+]3c(C)c2cc1OC` (tested in a mixture with another compound) was tested. Which TGI did it give?
Answer: > 100 µM

Question: Which TGI does the source give for `CCN(CC)C1CC(O[C@H]2C[C@](O)(C(=O)CO)Cc3c(O)c4c(c(O)c32)C(=O)c2c(OC)cccc2C4=O)OC(C)C1O` (some centres undefined) here?
Answer: 0.124 µM

system: RXF-631 renal; experiment: NCI tumour cell line growth inhibition, 48 h

Question: With `CC(=O)O[C@H]1CCC2[C@@H]3CC[C@]4(C)CC(=O)C=C[C@]4(C)C3CC[C@@]21C` (some centres undefined) as the molecule, how does the TGI read?
Answer: > 100 µM

Question: How did the TGI turn out when `O=C(CC(=O)n1nc(-c2ccccc2)c(N=Nc2ccc(Cl)cc2)c1-c1ccccc1)Nc1ccc(Cl)cc1` was run?
Answer: > 100 µM
